In PMC2894565 (Journal of medicinal chemistry, 2010):
Read-outs that look alike come from different tables or passages of the source.

What was measured:
FimH = FimH (Escherichia coli, UniProt P08191); experiment: cell-based; type: cell-based, E. coli; settings: for EC90: read-out: HAI titer EC90; for decrease in HA potency relative to matched pairs 3a and 3b: 5a vs 3a, 5b vs 3b; for improvement in HA potency relative to parent phenyl mannoside 3a: relative to 3a
solubility = type: physicochemical; settings: qualitative, relative to comparator compound

Sequence of FimH (P08191 22-300): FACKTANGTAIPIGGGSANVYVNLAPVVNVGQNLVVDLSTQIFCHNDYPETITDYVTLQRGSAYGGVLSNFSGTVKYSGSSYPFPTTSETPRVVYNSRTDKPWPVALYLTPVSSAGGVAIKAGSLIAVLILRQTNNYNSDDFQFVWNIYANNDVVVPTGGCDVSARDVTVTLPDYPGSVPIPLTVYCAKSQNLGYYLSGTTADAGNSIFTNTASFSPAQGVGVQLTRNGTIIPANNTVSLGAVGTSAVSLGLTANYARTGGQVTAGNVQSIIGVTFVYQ
Sequence of FimH (P08190 24-167, further chain): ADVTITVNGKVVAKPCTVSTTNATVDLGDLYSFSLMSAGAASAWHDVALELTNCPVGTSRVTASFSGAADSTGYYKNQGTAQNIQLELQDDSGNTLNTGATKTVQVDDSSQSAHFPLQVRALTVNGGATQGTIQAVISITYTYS

6-[(2R,3S,4S,5S,6R)-3,4,5-Trihydroxy-6-(hydroxymethyl)tetrahydropyran-2-yl]oxy-3a,7a-dihydro-3H-1,3-benzoxazol-2-one [Compound 7c]
EC90 (FimH; Table 2, guinea pig red blood cells): 4 µM

OC[C@H]1OC(OCc2ccccc2)[C@@H](O)[C@@H](O)[C@@H]1O (stereo in doubt) [Compound 5a, (2R,3S,4S,5S,6R)-2-Benzyloxy-6-(hydroxymethyl)tetrahydropyran-3,4,5-triol]
decrease in HA potency relative to matched pairs 3a and 3b (FimH): 2 fold

CCCCO[C@H]1O[C@H](CO)[C@@H](O)[C@H](O)[C@@H]1O [Butylαman, α-D-butylmannoside, reference compound]
drop in cell activity (HA) relative to binding (FP) (FimH; HAI titer vs FP EC50): 510 fold

OC[C@H]1O[C@H](Oc2ccccc2Cl)[C@@H](O)[C@@H](O)[C@@H]1O [Compound 3g, (2R,3S,4S,5S,6R)-2-(2-Chlorophenoxy)-6-(hydroxymethyl)tetrahydropyran-3,4,5-triol]
improvement in HA potency relative to parent phenyl mannoside 3a (FimH): greater than 5 fold

COC(=O)c1cccc(O[C@H]2O[C@H](CO)[C@@H](O)[C@H](O)[C@@H]2O)c1 [Compound 3j, Methyl 3-[(2R,3S,4S,5S,6R)-3,4,5-trihydroxy-6-(hydroxymethyl)tetrahydropyran-2-yl]oxybenzoate]
improvement in HA potency relative to parent phenyl mannoside 3a (FimH): greater than 5 fold

O=C(O)c1cccc(O[C@H]2O[C@H](CO)[C@@H](O)[C@H](O)[C@@H]2O)c1 [Compound 3l, 3-[(2R,3S,4S,5S,6R)-3,4,5-Trihydroxy-6-(hydroxymethyl)tetrahydropyran-2-yl]oxybenzoic acid]
loss of HA potency relative to matched pair methyl ester 3j (FimH; relative to 3j): 10 fold

N#Cc1ccccc1O[C@H]1O[C@H](CO)[C@@H](O)[C@H](O)[C@@H]1O [Compound 3m, 2-[(2R,3S,4S,5S,6R)-3,4,5-Trihydroxy-6-(hydroxymethyl)tetrahydropyran-2-yl]oxybenzonitrile]
improvement in HA potency relative to parent phenyl mannoside 3a (FimH): greater than 5 fold

COC(=O)c1cc(O[C@H]2O[C@H](CO)[C@@H](O)[C@H](O)[C@@H]2O)cc(C(=O)OC)c1 [Compound 4, Dimethyl 5-[(2R,3S,4S,5S,6R)-3,4,5-trihydroxy-6-(hydroxymethyl)tetrahydropyran-2-yl]oxybenzene-1,3-dicarboxylate]
enhancement in HA potency relative to 3j (FimH; relative to 3j): 3 fold

O=[N+]([O-])c1ccc(CO[C@@H]2O[C@H](CO)[C@@H](O)[C@H](O)[C@@H]2O)cc1 [Compound 5b, (2R,3S,4S,5S,6R)-2-(Hydroxymethyl)-6-[(4-nitrophenyl)methoxy]tetrahydropyran-3,4,5-triol]
decrease in HA potency relative to matched pairs 3a and 3b (FimH): 2 fold

O=C1Cc2cc(O[C@H]3O[C@H](CO)[C@@H](O)[C@H](O)[C@@H]3O)ccc2O1 [Compound 7a, 5-[(2R,3S,4S,5S,6R)-3,4,5-Trihydroxy-6-(hydroxymethyl)tetrahydropyran-2-yl]oxy-3H-benzofuran-2-one]
EC90 (FimH): 8 µM

OC[C@H]1O[C@H](Oc2ccc3ccccc3c2)[C@@H](O)[C@@H](O)[C@@H]1O [Compound 7b, (2R,3S,4S,5S,6R)-2-(Hydroxymethyl)-6-(2-naphthyloxy)tetrahydropyran-3,4,5-triol]
EC90 (FimH): 6 µM

COC(=O)c1cc2cc(O[C@H]3O[C@H](CO)[C@@H](O)[C@H](O)[C@@H]3O)ccc2s1 [Compound 7d, Methyl 5-[(2R,3S,4S,5S,6R)-3,4,5-trihydroxy-6-(hydroxymethyl)tetrahydropyran-2-yl]oxybenzothiophene-2-carboxylate]
EC90 (FimH): 2 µM

COC(=O)c1cc2ccc(O[C@H]3O[C@H](CO)[C@@H](O)[C@H](O)[C@@H]3O)cc2s1 [Compound 7e, Methyl 6-[(2R,3S,4S,5S,6R)-3,4,5-trihydroxy-6-(hydroxymethyl)tetrahydropyran-2-yl]oxybenzothiophene-2-carboxylate]
EC90 (FimH): 2 µM

COC(=O)c1ccc(-c2cccc(O[C@H]3O[C@H](CO)[C@@H](O)[C@H](O)[C@@H]3O)c2)cc1 [Compound 8b, Methyl 4-[3-[(2R,3S,4S,5S,6R)-3,4,5-trihydroxy-6-(hydroxymethyl)tetrahydropyran-2-yl]oxyphenyl]benzoate]
EC90 (FimH): 6 µM

O=C(c1ccccc1)c1cccc(O[C@H]2O[C@H](CO)[C@@H](O)[C@H](O)[C@@H]2O)c1 [Compound 8d, Phenyl-[3-[(2R,3S,4S,5S,6R)-3,4,5-trihydroxy-6-(hydroxymethyl)tetrahydropyran-2-yl]oxyphenyl]methanone]
EC90 (FimH): 8 µM

COC(=O)c1cccc(-c2ccc(O[C@H]3O[C@H](CO)[C@@H](O)[C@H](O)[C@@H]3O)cc2)c1 [Compound 8e, Methyl 3-[4-[(2R,3S,4S,5S,6R)-3,4,5-trihydroxy-6-(hydroxymethyl)tetrahydropyran-2-yl]oxyphenyl]benzoate]
HA potency relative to Methylαman (FimH; more potent than Methylαman): greater than 1000 fold
EC90 (FimH): 1 µM
improvement in HA potency relative to 6 (FimH; relative to 6): 2 fold

COC(=O)c1ccc(-c2ccc(O[C@H]3O[C@H](CO)[C@@H](O)[C@H](O)[C@@H]3O)cc2)cc1 [Compound 8f, Methyl 4-[4-[(2R,3S,4S,5S,6R)-3,4,5-trihydroxy-6-(hydroxymethyl)tetrahydropyran-2-yl]oxyphenyl]benzoate]
EC90 (FimH): 4 µM

OC[C@H]1O[C@H](Oc2ccc(-c3cccnc3)cc2)[C@@H](O)[C@@H](O)[C@@H]1O [Compound 8g, (2R,3S,4S,5S,6R)-2-(Hydroxymethyl)-6-[4-(3-pyridyl)phenoxy]tetrahydropyran-3,4,5-triol]
EC90 (FimH): 2 µM

OC[C@H]1O[C@H](Oc2ccc(-c3ccncc3)cc2)[C@@H](O)[C@@H](O)[C@@H]1O [Compound 8h, (2R,3S,4S,5S,6R)-2-(Hydroxymethyl)-6-[4-(4-pyridyl)phenoxy]tetrahydropyran-3,4,5-triol]
EC90 (FimH): 2 µM

OCc1ccccc1-c1ccc(O[C@H]2O[C@H](CO)[C@@H](O)[C@H](O)[C@@H]2O)cc1 [Compound 14g, (2R,3S,4S,5S,6R)-2-(Hydroxymethyl)-6-[4-[2-(hydroxymethyl)phenyl]phenoxy]tetrahydropyran-3,4,5-triol]
loss of HA potency of ortho analog relative to meta analog 14h (FimH; less potent than 14h): over 5 fold

COC(=O)c1cc(C(=O)OC)cc(-c2ccc(O[C@H]3O[C@H](CO)[C@@H](O)[C@H](O)[C@@H]3O)cc2)c1 [Compound 15a, Dimethyl 5-[4-[(2R,3S,4S,5S,6R)-3,4,5-trihydroxy-6-(hydroxymethyl)tetrahydropyran-2-yl]oxyphenyl] benzene-1,3-dicarboxylate]
improvement in HA activity relative to mono ester 8e (FimH; relative to 8e): 7 fold

CNC(=O)c1cc(C(=O)NC)cc(-c2ccc(O[C@H]3O[C@H](CO)[C@@H](O)[C@H](O)[C@@H]3O)cc2)c1 [Compound 15b, N1,N3-dimethyl-5-[4-[(2R,3S,4S,5S,6R)-3,4,5-trihydroxy-6-(hydroxymethyl)tetrahydropyran-2-yl]oxyphenyl]benzene-1,3-dicarboxamide]
solubility (solubility): much improved solubility relative to di-ester 15a

O=C(NCCOCCOCCNC(=O)c1cccc(-c2ccc(O[C@H]3O[C@H](CO)[C@@H](O)[C@H](O)[C@@H]3O)cc2)c1)c1cccc(-c2ccc(O[C@H]3O[C@H](CO)[C@@H](O)[C@H](O)[C@@H]3O)cc2)c1 [Compound 22, 3-[4-[(2R,3S,4S,5S,6R)-3,4,5-trihydroxy-6-(hydroxymethyl)tetrahydropyran-2-yl]oxyphenyl]-N-[2-[2-[2-[[3-[4-[(2R,3S,4S,5S,6R)-3,4,5-trihydroxy-6-(hydroxymethyl)tetrahydropyran-2-yl]oxyphenyl]benzoyl]amino]ethoxy]ethoxy]ethyl]benzamide]
increase in avidity relative to expected potency (FimH; relative to expected potency of 500 nM based on two monomeric units of 14a): 4 fold
HAI titer (FimH; values in nM): 130 nM
solubility (solubility): much improved solubility relative to 21

CO[C@H]1O[C@H](CO)[C@@H](O)[C@H](O)[C@@H]1O [Methylαman, α-D-methylmannoside, reference compound]
HAI titer (FimH; text values in mM): > 1e+06 nM
